Data on one molecule can be found in paper PMC11938014, “Development and Application of Small Molecule–Peptide Conjugates as Cathepsin K-Specific Covalent Irreversible Inhibitors in Human Osteoclast and Lung Cancer” (JACS Au, 2025).

In one experiment the test system is human osteoclasts. Briefly: Osteoclast differentiation assay on plastic (TRAP). The format is cell-based. The note with it: osteoclasts grown on plastic, 7 days. How it is done: To assess osteoclast differentiation, 7.5 × 10^4 cells from PBMCs, cells preincubated with M-CSF, were cultured in 96-well plates. After 3 days, medium was replaced with differentiation medium (αMEM; M8042 sigma, 10% FBS, 5% Penstrep and L-Glu, BI) supplemented with 25 ng/mL M-CSF and 25 ng/mL RANKL (R&D systems, 390-TN) and different inhibitors: GD20 (1 or 5 μM), ODN (1 or 5 μM), or vehicle. The differentiation medium was changed after 2 and 5 days. Cells were fixed on the 7th day with 4% PFA for 10 min at room temperature, they were washed three times with PBS, and then stained using a TRAP staining kit (Sigma-Aldrich, 387A-1KT) according to the manufacturer’s protocol with additional staining of the nuclei with DAPI. Osteoclast parameters were obtained by analysis of three wells from each- treatment. […] The total osteoclast surface area was determined using ImageJ software by manually tracing individual osteoclasts perimeters.
Figure S7. Identification of fluorescent band identity. […] G els were scanned for fluorescence and then underwent immunoblotting with different cathepsin -specific antibodies . […]
Fluorescence Immunoblot s.ch. = single chain, […]
Quantification of the total number of osteoclasts, and c) osteoclast-cell area in each treatment […]
Figure S9. […] Cathepsin activity was detected by labeling intact osteoclast with GB123, a pan-cathepsin activity-based probe. […]

Another experiment addresses T1, mouse CTSK in mouse OCs (Mus musculus, UniProt P55097).
T1 construct: endogenous in cells; host or cells: osteoclasts differentiated from C57BL/6 mouse bone marrow
T1 sequence (P55097 115-329): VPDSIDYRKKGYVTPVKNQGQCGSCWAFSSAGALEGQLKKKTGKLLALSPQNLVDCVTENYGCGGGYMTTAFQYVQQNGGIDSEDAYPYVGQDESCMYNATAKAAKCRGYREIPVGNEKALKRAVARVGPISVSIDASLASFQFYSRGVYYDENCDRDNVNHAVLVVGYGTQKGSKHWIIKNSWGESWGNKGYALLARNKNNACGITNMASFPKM
Briefly: Residual cathepsin activity in mice osteoclasts (GB123 gel). The format is cell-based. As to conditions: 5 μM, 2 h, then GB123 2 h. How it is done: Human and mouse CTSK species have a high degree of structural commonality. […] Therefore, to investigate the inhibitors’ cross-reactivity with mouse CTSK, mouse OCs were cultivated with mouse bone marrow cells stimulated with M-CSF and RANKL for 9–10 days. In addition, control cells differentiated into macrophages that highly express active cathepsins but not CTSK and were generated by treatment with M-CSF and IL-4.[49] Both intact OC and macrophage cells were incubated for 2 h with GD20, vehicle, or ODN, followed by a 2 h incubation with pan-cathepsin probe GB123. The CTSK-specific fluorescent band near 25 kDa disappeared in cells treated with GD20, whereas the other competing band remained unaltered (Figure 7a). Mice OS samples were blotted to identify the different cathepsins in the sample (Figure S9b).
Figure 7 CTSK inhibition in mice osteoclasts. (a) Activity and expression of CTSK in mouse OCs were assessed in the presence of indicated inhibitors. Intact OCs were treated for 2 h with 5 μM inhibitor in the culture medium, followed by 2 h of labeling of residual enzyme activity by GB123. Samples were analyzed by SDS-PAGE and scanned for fluorescence with a Typhoon scanner at 635/670 nm. Western blot with anti-CTSK is shown aside. […] Samples were analyzed by SDS-PAGE and scanned for fluorescence with a Typhoon scanner at 635/670 nm. […]

Consider `CC(C)C[C@H](N[C@@H](c1ccc(-c2ccc(S(C)(=O)=O)cc2)cc1)C(F)(F)F)C(=O)NCC(=O)COC(=O)[C@@H]1CCCN1C(=O)[C@H](CC(C)C)NC(=O)OCC1c2ccccc2-c2ccccc21` [GD20], for which the total osteoclast area entry with human osteoclasts is reported as “slightly decreased”. Moreover, the “CTSK-specific fluorescent band near 25 kDa” value at mouse CTSK in mouse OCs is given as “disappeared”.
